Reference: ChEMBL document CHEMBL5214960 (J Med Chem, 2022)
Where a chain is given by its changes, count along the chain named. Values after ≈ are worked out from the molar mass of the structure shown.

Tests used:
[1] = Metabolic stability in mouse hepatic microsome at 4 uM measured after 30 mins by LC-MS analysis; type: ADME; conditions: liver microsomes, read-out: Stability
[2] = Plasma protein binding in mouse assessed as unbound fraction measured after 4.5 hrs by LC-MS/MS analysis; type: ADME, cell-free
[3] = Aqueous solubility of compound at pH 6 by HPLC analysis; type: physicochemical; conditions: buffer
CYP2D6 = CYP2D6 (Homo sapiens, UniProt P10635); assay: Inhibition of human hepatic CYP2D6 using bufuralol HCL as substrate measured after 3 mins by LC-MS analysis relative to control; type: ADME, tissue-based; parameters: concentration or dose not given beside the values; conditions: human hepatic CYP2D6 (liver), probe bufuralol HCl
CYP3A4 = CYP3A4 (Homo sapiens, UniProt P08684); assay: Inhibition of human hepatic CYP3A4 using midazolam as substrate measured after 3 mins by LC-MS analysis relative to control; type: ADME, tissue-based; parameters: concentration or dose not given beside the values; conditions: human hepatic CYP3A4 (liver), probe midazolam
[4] = Metabolic stability in dog hepatic microsome at 4 uM measured after 30 mins by LC-MS analysis; type: ADME, Canis lupus familiaris; conditions: liver microsomes, read-out: Stability
[5] = Metabolic stability in human hepatic microsome at 4 uM measured after 30 mins by LC-MS analysis; type: ADME; conditions: liver microsomes, read-out: Stability
CYP2C9 = CYP2C9 (Homo sapiens, UniProt P11712); assay: Inhibition of human hepatic CYP2C9 using diclofenac as substrate measured after 10 mins by LC-MS analysis relative to control; type: ADME, tissue-based; parameters: concentration or dose not given beside the values; conditions: human hepatic CYP2C9 (liver), probe diclofenac
[6] = Tmax in Sprague-Dawley rat plasma at 30 mg/kg, po measured after 24 hrs by LC-MS/MS analysis; type: ADME, organism-based; conditions: in vivo
[7] = AUC(0 to 12 hrs) in Sprague-Dawley rat plasma at 30 mg/kg, po measured after 24 hrs by LC-MS/MS analysis; type: ADME, organism-based; parameters: time 24 hrs, dose 30 mg/kg, route po; conditions: in vivo
[8] = Unbound Cmax in plasma of CD-1 mouse at 2 mg/kg, iv measured after 8 hrs by LC-MS/MS analysis; type: ADME, organism-based; conditions: in vivo
[9] = target: T1, Low molecular weight phosphotyrosine protein phosphatase (Mus musculus, UniProt Q9D358); assay: Inhibition of N-terminal His-tagged full length mouse LMW-PTP expressed in Escherichia coli BL21(DE3) by […] analysis
T1 sequence (Q9D358 whole entry): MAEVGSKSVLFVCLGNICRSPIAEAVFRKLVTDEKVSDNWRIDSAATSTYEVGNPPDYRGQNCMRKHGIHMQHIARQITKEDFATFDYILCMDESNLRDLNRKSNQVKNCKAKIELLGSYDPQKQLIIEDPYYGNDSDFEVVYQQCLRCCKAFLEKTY

[10] = Inhibition of PTP-Meg2 (unknown origin); parameters: species or system Homo sapiens
[11] = Unbound Cmax in plasma of Sprague-Dawley rat at 30 mg/kg, po measured after 24 hrs by LC-MS/MS analysis; type: ADME, organism-based; conditions: in vivo
[12] = Cmax in CD-1 mouse plasma at 2 mg/kg, iv measured after 8 hrs by LC-MS/MS analysis; type: ADME, organism-based; parameters: time 8 hrs, dose 2 mg/kg, route iv
[13] = Half life in Sprague-Dawley rat plasma at 30 mg/kg, po measured after 24 hrs by LC-MS/MS analysis; type: ADME, organism-based; conditions: in vivo
[14] = Cmax in CD-1 mouse plasma at 10 mg/kg, po measured after 8 hrs by LC-MS/MS analysis; type: ADME, organism-based; parameters: dose 10 mg/kg, time 8 hrs, route po; conditions: mouse, in vivo, 8 h
[15] = Volume of distribution at steady state in CD-1 mouse plasma at 2 mg/kg, iv measured after 8 hrs by LC-MS/MS analysis; type: ADME, organism-based; conditions: in vivo
[16] = Half life in CD-1 mouse plasma at 2 mg/kg, iv measured after 8 hrs by LC-MS/MS analysis; type: ADME, organism-based; conditions: mouse, in vivo, iv, 2 mg/kg, 8 h
[17] = AUC(0 to 8 hrs) in CD-1 mouse plasma at 2 mg/kg, iv measured after 8 hrs by LC-MS/MS analysis; type: ADME, organism-based; parameters: dose 2 mg/kg, time 8 hrs, route iv; conditions: in vivo
[18] = AUC(0 to 8 hrs) in CD-1 mouse plasma at 10 mg/kg, po measured after 8 hrs by LC-MS/MS analysis; type: ADME, organism-based; parameters: dose 10 mg/kg, time 8 hrs, route po; conditions: in vivo
[19] = Half life in CD-1 mouse plasma at 10 mg/kg, po measured after 8 hrs by LC-MS/MS analysis; type: ADME, organism-based; conditions: in vivo
[20] = Unbound Cmax in plasma of CD-1 mouse at 10 mg/kg, po measured after 8 hrs by LC-MS/MS analysis; type: ADME, organism-based; conditions: in vivo
[21] = target: T2, Low molecular weight phosphotyrosine protein phosphatase (Rattus norvegicus, UniProt P41498); assay: Inhibition of N-terminal His-tagged full length rat LMW-PTP expressed in Escherichia coli BL21(DE3)
T2 sequence (P41498 whole entry): T1 sequence (Q9D358 whole entry) with K35N, R65K, K80R, Y158H

[22] = Oral bioavailability in CD-1 mouse plasma at 10 mg/kg measured after 8 hrs by LC-MS/MS analysis; type: ADME, organism-based; conditions: CD-1, mouse, plasma
[23] = Cmax in Sprague-Dawley rat plasma at 30 mg/kg, po measured after 24 hrs by LC-MS/MS analysis; type: ADME, organism-based; parameters: time 24 hrs, dose 30 mg/kg, route po; conditions: in vivo
[24] = target: T3, Low molecular weight phosphotyrosine protein phosphatase (Homo sapiens, UniProt P24666); assay: Inhibition of His-tagged human LMW-PTP expressed in Escherichia coli BL21 using pNPP as substrate incubated for 10 mins by microplate reader based spectrophotometric analysis
T3 sequence (P24666 whole entry): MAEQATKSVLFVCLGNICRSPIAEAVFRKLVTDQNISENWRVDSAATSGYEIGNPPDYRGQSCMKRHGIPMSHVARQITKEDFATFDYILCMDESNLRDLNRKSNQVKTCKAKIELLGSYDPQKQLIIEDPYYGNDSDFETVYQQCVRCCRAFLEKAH

CYP2C9, sequence (P11712 whole entry): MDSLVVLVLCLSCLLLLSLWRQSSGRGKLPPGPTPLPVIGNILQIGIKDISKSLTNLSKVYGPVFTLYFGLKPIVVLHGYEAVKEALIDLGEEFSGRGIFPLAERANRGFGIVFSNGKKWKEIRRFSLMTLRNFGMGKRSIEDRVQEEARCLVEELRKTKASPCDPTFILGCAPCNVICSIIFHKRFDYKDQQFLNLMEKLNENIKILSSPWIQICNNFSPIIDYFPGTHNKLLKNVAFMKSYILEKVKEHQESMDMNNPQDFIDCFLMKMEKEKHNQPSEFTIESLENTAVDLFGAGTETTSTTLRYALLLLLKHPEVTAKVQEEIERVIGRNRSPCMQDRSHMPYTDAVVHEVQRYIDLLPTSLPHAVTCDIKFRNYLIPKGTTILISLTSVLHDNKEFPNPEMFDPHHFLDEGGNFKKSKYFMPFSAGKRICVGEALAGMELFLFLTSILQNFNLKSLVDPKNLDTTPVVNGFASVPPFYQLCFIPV
CYP2D6, sequence (P10635 whole entry): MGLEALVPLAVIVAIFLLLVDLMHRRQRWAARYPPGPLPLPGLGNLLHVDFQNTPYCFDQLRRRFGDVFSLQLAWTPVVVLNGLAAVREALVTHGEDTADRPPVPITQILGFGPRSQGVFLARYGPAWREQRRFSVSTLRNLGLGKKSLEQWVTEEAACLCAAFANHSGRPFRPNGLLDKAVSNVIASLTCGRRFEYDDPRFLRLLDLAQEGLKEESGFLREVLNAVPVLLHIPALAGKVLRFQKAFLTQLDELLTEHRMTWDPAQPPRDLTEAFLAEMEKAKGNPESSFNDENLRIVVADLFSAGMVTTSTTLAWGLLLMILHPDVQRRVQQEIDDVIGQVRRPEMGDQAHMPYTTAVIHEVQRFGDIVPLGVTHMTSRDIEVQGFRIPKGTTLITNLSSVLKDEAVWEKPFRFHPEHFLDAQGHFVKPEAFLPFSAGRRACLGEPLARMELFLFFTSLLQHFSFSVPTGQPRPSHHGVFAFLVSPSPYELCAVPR
CYP3A4, sequence (P08684 whole entry): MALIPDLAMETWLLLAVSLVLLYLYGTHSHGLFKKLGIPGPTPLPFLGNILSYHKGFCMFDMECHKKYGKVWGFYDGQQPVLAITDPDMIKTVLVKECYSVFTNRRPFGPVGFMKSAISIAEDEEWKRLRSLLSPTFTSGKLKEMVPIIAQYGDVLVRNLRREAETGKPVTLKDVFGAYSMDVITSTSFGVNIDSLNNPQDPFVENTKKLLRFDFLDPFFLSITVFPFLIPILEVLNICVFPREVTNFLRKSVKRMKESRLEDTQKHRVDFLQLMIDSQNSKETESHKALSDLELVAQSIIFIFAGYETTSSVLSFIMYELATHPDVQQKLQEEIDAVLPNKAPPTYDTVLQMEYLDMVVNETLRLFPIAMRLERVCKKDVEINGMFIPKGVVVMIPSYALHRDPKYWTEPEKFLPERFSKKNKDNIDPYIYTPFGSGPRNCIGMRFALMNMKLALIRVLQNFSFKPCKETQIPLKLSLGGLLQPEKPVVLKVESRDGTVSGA

Q: Which remaining at 0.5 h, 4 µM [1] does the source give for `O=C(Nc1nc2ccccc2s1)C(c1ccccc1)S(=O)(=O)O` (configuration not stated) here?
A: 17%

Q: What about the Fu [2] of the same molecule?
A: < 0.006

Q: And the solubility [3]?
A: 660 µg/mL (≈ 1890 µM)

Q: And the inhibition at 0.05 h (CYP2D6)?
A: 5%

Q: What about the inhibition at 0.05 h (CYP3A4) of the same molecule?
A: 9%

Q: What about the remaining at 0.5 h, 4 µM [4] of the same molecule?
A: 61%

Q: What about the remaining at 0.5 h, 4 µM [5] of the same molecule?
A: 54%

Q: And the inhibition at 10 min (CYP2C9)?
A: 69%

Q: What does the source list for `Cc1c(Br)cc(NC(=O)C(c2ccccc2)S(=O)(=O)O)cc1Br` (configuration not stated)?
A: Tmax [6]: 2.7 h; AUC [7]: 37.1 µM·h; fCmax [8]: < 30 nM; IC50 [9]: 200 nM; remaining at 0.5 h, 4 µM [1]: 50%; IC50 [10]: > 200000 nM; Fu [2]: < 0.006; fCmax [11]: < 43 nM; solubility [3]: 920 µg/mL (≈ 1990 µM); Cmax [12]: 4.94 µM; t1/2 [13]: 3 h; Cmax [14]: 1.02 µM; inhibition at 0.05 h (CYP2D6): 1%; Vdss [15]: 3.4 L/kg; t1/2 [16]: 2 h; AUC [17]: 2.09 µM·h; inhibition at 0.05 h (CYP3A4): 0%; AUC [18]: 5.24 µM·h; remaining at 0.5 h, 4 µM [4]: 59%; t1/2 [19]: 5.2 h; remaining at 0.5 h, 4 µM [5]: 34%; fCmax [20]: < 6 nM; IC50 [21]: 300 nM; bioavailability [22]: 50%; inhibition at 10 min (CYP2C9): 79%; Cmax [23]: 6.12 µM

Q: Which IC50 [24] does the source give for `CS(=O)(=O)c1ccc2nc(NC(=O)CS(=O)(=O)O)sc2c1` here?
A: 300 nM

Q: With `Cc1cc([N+](=O)[O-])c2nc(NC(=O)CS(=O)(=O)O)sc2c1` as the molecule, how does the IC50 [24] read?
A: 400 nM

Q: For `Cc1c(Br)cc(NC(=O)[C@@H](c2cncs2)S(=O)(=O)O)cc1Br`, which IC50 [24] is on record?
A: 11400 nM

Q: With `O=C(Nc1nccs1)NS(=O)(=O)O` as the molecule, how does the IC50 [24] read?
A: 49 nM

Q: Which IC50 [24] does the source give for `O=C(CS(=O)(=O)O)Nc1nc2ccc(C(F)(F)F)cc2s1` here?
A: 600 nM

Q: With `O=C(CS(=O)(=O)O)Nc1cnc(N2CCOCC2)c(Br)c1` as the molecule, how does the IC50 [24] read?
A: 1200 nM

Q: For `O=C(CS(=O)(=O)O)Nc1ccccc1`, which IC50 [24] is on record?
A: > 100000 nM

Q: With `O=C(CS(=O)(=O)O)Nc1nc2cc([N+](=O)[O-])ccc2s1` as the molecule, how does the IC50 [24] read?
A: 400 nM

Q: Which IC50 [24] does the source give for `O=C(CS(=O)(=O)O)Nc1ncc(-c2ccccc2)s1` here?
A: 1500 nM

Q: With `O=C(CS(=O)(=O)O)Nc1nccs1` as the molecule, how does the IC50 [24] read?
A: 12200 nM

Q: For `O=C(CS(=O)(=O)O)Nc1nc2ccc(C(=O)N3CCCC3)cc2s1`, which IC50 [24] is on record?
A: 300 nM

Q: With `O=C(CS(=O)(=O)O)Nc1cc(Br)cc(C(F)(F)F)c1` as the molecule, how does the IC50 [24] read?
A: 5200 nM

Q: Which IC50 [24] does the source give for `Cc1ccc2nc(NC(=O)CS(=O)(=O)O)sc2c1` here?
A: 1700 nM
